Measured values reported in PMC11375437, “Selective labelling of GBA2 in cells with fluorescent β-D-arabinofuranosyl cyclitol aziridines” (Chemical Science, 2024).

Target: T1, rhGBA1 (Homo sapiens, UniProt P04062, R534H)
T1 construct: purchased Sanofi Genzyme (gift) Cerezyme®
T1 sequence (P04062 40-536 R534H): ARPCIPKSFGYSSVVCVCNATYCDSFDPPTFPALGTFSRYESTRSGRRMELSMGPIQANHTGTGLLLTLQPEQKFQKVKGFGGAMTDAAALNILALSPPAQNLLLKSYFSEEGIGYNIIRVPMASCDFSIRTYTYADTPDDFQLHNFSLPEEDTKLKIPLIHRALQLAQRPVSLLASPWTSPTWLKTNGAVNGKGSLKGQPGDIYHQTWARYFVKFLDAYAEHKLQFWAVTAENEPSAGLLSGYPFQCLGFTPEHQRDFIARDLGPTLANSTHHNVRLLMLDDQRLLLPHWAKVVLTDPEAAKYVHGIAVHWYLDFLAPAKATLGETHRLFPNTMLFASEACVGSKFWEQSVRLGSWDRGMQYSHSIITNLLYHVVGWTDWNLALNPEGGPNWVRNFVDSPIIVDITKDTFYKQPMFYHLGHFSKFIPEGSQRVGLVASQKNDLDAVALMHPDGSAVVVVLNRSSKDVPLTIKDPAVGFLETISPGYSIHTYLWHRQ
Test: Labelling of GBA2 OE lysate spiked with rhGBA1, residual rhGBA1 read out with ABP 10 or 11
Format: biochemical
Settings: GBA2 OE lysate spiked with 3 ng rhGBA1; 30 min
Procedure: To this end, lysates of HEK293T cells containing all β-glucosidases (endogenous GBA1 with overexpressed GBA2 and GBA3) were treated with ABPs 3, 4, 5 or 7, followed by protein separation by SDS-PAGE and fluorescence scanning of the wet gel slabs. […] In contrast, the β-D-Araf aziridine ABPs 3 and 4 selectively labelled GBA2 at a concentration of 100 nM, while Cy5 tagged ABP 5 did so at 500 nM. The GBA2 selectivity of β-D-Araf cyclitol aziridines 3, 4 and 5 was confirmed in a mixture of a lysate of overexpressed GBA2 cells spiked with 3 ng rhGBA1 (Fig. 2C and ESI Fig. S3 ^†). […] Therefore, only a combined inactivation rate constant (kinact) and binding constant (KI) ratio (kinact/KI) could be measured. […] Importantly, no labelling of GBA1 or GBA3 was detected under varying pH and time conditions (ESI Fig. S4-2 ^†). […]
2.8 β-Glucosidase inactivation visualized by competitive ABPP with SDS-PAGE In general, samples containing GBA1, GBA2 or GBA3 (see the exact constitution of these samples in the described case) are first incubated (in vitro or in situ) with the inactivator compounds, subsequently, the fluorescent readout ABPs were added and incubated with the mixture to reveal the residual active β-glucosidase enzymes. […]

SMILES	Concentration at which marginal GBA1 labelling occurs [µM]
CC1=CC(C)=[N+]2C1=C(CCCCc1cn(CCCCCCCCN3[C@@H]4[C@H](CO)[C@@H](O)[C@H](O)[C@@H]43)nn1)c1c(C)cc(C)n1[B-]2(F)F (some centres unmarked) [ABP 3]	10
COc1ccc(C2=[N+]3C(=C(CCCCc4cn(CCCCCCCCN5[C@@H]6[C@H](CO)[C@@H](O)[C@H](O)[C@@H]65)nn4)c4ccc(-c5ccc(OC)cc5)n4[B-]3(F)F)C=C2)cc1 (some centres unmarked) [ABP 4]	10
